# From patent US20130053435A1, “Methods of Treating Alcohol Intoxication, Alcohol Use Disorders and Alcohol Abuse Which Comprises the Administration of Dihydromyricetin” (priority 2011, published 2013)
# Columns and labels:
# [1] = tested on: voluntary EtOH consumption in rats; assay: Intermittent access two-bottle choice voluntary EtOH intake; format: in vivo, rat; details: for EtOH consumption: E+D/water sub-group switched after 4 weeks
# Procedure: All fluids were presented in 100 ml graduated glass cylinders with stainless-steel drinking spouts inserted 15 min after the lights went off in the reversed light/dark cycle room. Bottles were weighed 30 min and 24 hrs after the fluids were presented. Each rat was weighed daily to monitor health and calculate the grams of ethanol intake per kilogram of body weight.
# Sweetener (2 pk/L) was added to every bottle for the first week. Sweetener (1 pk/L) was added to every bottle for the second week. […] Rats had unlimited access to two bottles of water between the EtOH-access periods. The placement of the EtOH bottle was alternated each EtOH drinking session to control for side preferences. Rats were maintained on 20% EtOH intermittent access two-bottle choice paradigm for 7 weeks (21 EtOH-access sessions). […] The rest of the EtOH group continued EtOH-access sessions. EtOH consumption was expressed as grams of EtOH consumed per kilogram of body weight. Rats access to two bottles of water were taken as the control-group. There was no significant difference in body weight between the control and the EtOH-drinking rats at the end of the experiments.
# [2] = tested on: EtOH withdrawal anxiety in rats; assay: Elevated plus-maze (EPM) after EtOH withdrawal; format: in vivo, rat
# Procedure: 48 hr after injection, rats were sub-divided into 3 groups to measure signs of EtOH withdrawal.
# Anxiety and locomotion/ataxia associated with EtOH withdrawal was measured on an elevated plus-maze in EtOH-withdrawn rats (EPM, FIG. 12A). Spent time was measured in minutes. The plus-maze was constructed and the measurements were scored as described previously. See Liang et al. (2004) J Pharmacol Exp Ther 310:1234-1245. Briefly, the maze was elevated 1 m above the floor, and contained four 51 cm-long, 11.5 cm-wide arms arranged at right angles. The closed arms had opaque walls 30 cm high, extending the length of the arm. At the time of the test, each animal was placed in the center of the maze facing an open arm and allowed to explore for a 5-min session. During the session, the animal's behavior (e.g. number of arm entries and time spent in each arm per entry) was recorded on a camcorder
# [3] = tested on: GABAARs; assay: Whole-cell patch-clamp, cultured hippocampal neurons 24 h after EtOH/DHM exposure; format: cell-based, rat; details: 24 h withdrawal
# Procedure: Control neurons were treated with corresponding vehicle as same procedure as EtOH-treated neurons. The concentration of 60 mM EtOH was selected in view of prior experiments. See Liang J et al (2007). Specifically, the concentration of 60 mM EtOH used to treat cultured neurons was chosen to match blood levels measured in adult rats after intoxication with gavage of 5 g/kg, which produced about 60 mM blood peak plasma [EtOH] lasting for about 2 to 3 hr and induced significant plasticity in GABAARs and tolerance.
# Then, immediately before electrophysiological recording, cells grown on coverslips were transferred to a perfusion chamber (Warner Instruments) and visualized with an inverted microscope (TE200, Nikon). Whole-cell patch-clamp recordings were obtained from cultured neurons under voltage-clamp mode at room temperature (22-25° C.), at a holding potential of −70 mV. Cells were perfused with an extracellular solution (137 mM NaCl, 5 mM KCl, 2 mM CaCl2, 1 mM MgCl2, 20 mM glucose and 10 mM HEPES (310-320 Osm, pH adjusted to 7.40 with NaOH)). Glass pipettes were filled with the same internal solution as that in slice recordings, with an input resistance of 4-7 MΩ. GABAAR-mediated mIPSCs were recorded using the same pharmacological method as mentioned above. […] Electrical signals were amplified using a Multiclamp 200 B amplifier (Molecular Devices, USA). After establishing the whole-cell configuration, at least 10 min were allowed to elapse before the application of drug to allow the membrane patch to stabilize and exchange of ions between the recording electrode and the cytosol to occur. Data were acquired with pClamp software (Version 10.0, Molecular Devices, USA), digitized at 20 kHz (Digidata 1440A, Molecular Devices), and analyzed using the Clampfit software (Version 10.0, Molecular Devices) and the Mini Analysis Program (versions 6.0.7, Synaptosoft, Decatur, Ga.) using methods known in the art. See Hamann M, et al. (2002) Neuron 33(4):625-633; Stell B M and Mody I (2002) J Neurosci 22(10): RC223; and Liang (2007).
# [4] = Plasma [EtOH] assay; format: in vivo, rat; details: two-bottle choice, E+D/water group, end of the fourth week
# Procedure: See Liang (2007). The rat was put into a restraint tube and its tail was warm in about 40° C. The tail vein at the tip of the rail was punched with a sharp blade. Approximately 0.2 ml venous blood was dropped to a capillary blood collection tube containing lithium heparin (Ram Scientific Inc. Yonkers, N.Y.). Blood samples were centrifuged at 2500 rpm for 15 min. The supernatant was collected and stored at −80° C. until assay. The EtOH content of each blood sample was measured in duplicate along with EtOH standards using the alcohol oxidase reaction procedures (GM7 Micro-Stat; Analox Instruments, Lunenberg, Mass.).
# [5] = EtOH+DHM (E+D) group, 48 hr withdrawal
# [6] = neurons treated with EtOH 60 mM + DHM
smiles,measurement,setting,value
"O=C1c2c(O)cc(O)cc2O[C@H](c2cc(O)c(O)c(O)c2)[C@H]1O [DHM, (2R,3R)-3,5,7-trihydroxy-2-(3,4,5-trihydroxyphenyl)-2,3-dihydrochromen-4-one]",EtOH-intake,"[1]; E+D/water group, DHM 0.05 mg/ml in 20% EtOH from start",2.6 ± 0.4 g/kg/day
same,EtOH consumption,[1]; end of 6th week,1.2 ± 0.2 g/kg/day
same,EtOH consumption,[1]; end of the 5th week,1.8 ± 1.0 g/kg/day
same,time spent in closed arms,"[2]; DHM group, 48 hr",1.52 ± 0.56 min
same,time spent in open arms,"[2]; DHM group, 48 hr",2.92 ± 0.70 min
same,time spent in closed arms,[2]; [5],1.88 ± 0.79 min
same,time spent in open arms,[2]; [5],2.68 ± 0.77 min
same,GABAAR function after exposure/withdrawal,[3]; DHM alone exposure,did not alter GABAAR function
same,Itonic magnitude after acute EtOH (60 mM),[3]; [6],25.2±1.2 pA
same,averaged Itonic magnitude,[3]; [6],11.2±0.6 pA
same,mIPSC potentiation by EtOH,[3]; [6],8.3±9.4%
same,plasma [EtOH] vs. E/water group,[4],significantly lower
